test system: guinea pig; test: In vivo tear secretion measured using phenol red threads after ocular instillation; settings: instilled ocularly at 200 μM, phenol red thread 30 seconds
Source text: The in vivo activity of the selected TRPM8 activating compounds (TZM-7) has been assessed in an animal model following the protocol described in Acosta M C et al., Invest Ophthalmol Vis Sci 2014 (Corneal sensory nerve activity in an experimental model of UV keratitis. Acosta M et al., Invest Ophthalmol Vis Sci May 1; 55(6):3403-12). […] Tear secretion can be measured using phenol red threads (Zone-Quick, Menicon, Nagoya, Japan) that are applied to the nasal edge of the lower eyelid for 30 seconds (after that time, the distance of the red-dyed thread is measured in mm).

Row | SMILES | tear secretion
1 | CC1CCC(C(C)C)C(O)C1 (stereo not shown) [Menthol, reference compound] | produces an increase in tear secretion

target: T1, TRPM8 (Homo sapiens, UniProt Q7Z2W7); test: Ca2+ fluorimetry assay in CHO cell line stably expressing TRPM8; type: cell-based; settings: 10 μM; CHO cells stably expressing TRPM8; Fluo-4NW fluorescence
T1 construct: expressed in transfected cells
Description: The cells were cultured in monolayer in EMEM medium (Earle's minimum essential medium with Earle's salts, Invitrogen) supplemented with 10% foetal bovine serum (FBS), 2 mM L-glutamine, 1% penicillin-streptomycin solution and […] of the Geneticin antibiotic (Sigma) and kept at 37° C. in a humidified atmosphere with 5% of CO2. Ca^2+ fluorimetry assays were carried out in order to determine the efficacy of the compounds on the TRPM8 channels. The cells were seeded in 96-well plates with a density of 25,000 cells per well. Three days after seeding, the medium was removed and 100 μl of the Fluo-4NW fluorescent probe from Invitrogen was added with a concentration of 5 μM in the presence of 0.02% pluronic acid; after 60 minutes of incubation at 37° C. in a humidified atmosphere with 5% of CO2, the fluorescence was measured in a microplate reader (POLARstar Omega) with a configuration of 485 nm for the excitation and 520 nm for the emission, during 20 cycles. […] In the wells that were used as negative controls, 1 μl of AMTB [N-(3-aminopropyl)-2-[(3-methylphenyl)methoxy]-N-(2-thienylmethyl)benzamide] was added to obtain a final concentration of 10 μM, to block the TRPM8 channels.
The amplitudes of the Ca^2+ increases, caused by the stimulation of the cells with the compounds, were measured by subtracting the basal fluorescence signal (mean intensity obtained before adding the compound) from the fluorescence peak obtained after applying the compounds. The obtained results were adjusted to a sigmoid function using the software suite of the GraphPad Prism computer program.

T1 sequence (Q7Z2W7 whole entry): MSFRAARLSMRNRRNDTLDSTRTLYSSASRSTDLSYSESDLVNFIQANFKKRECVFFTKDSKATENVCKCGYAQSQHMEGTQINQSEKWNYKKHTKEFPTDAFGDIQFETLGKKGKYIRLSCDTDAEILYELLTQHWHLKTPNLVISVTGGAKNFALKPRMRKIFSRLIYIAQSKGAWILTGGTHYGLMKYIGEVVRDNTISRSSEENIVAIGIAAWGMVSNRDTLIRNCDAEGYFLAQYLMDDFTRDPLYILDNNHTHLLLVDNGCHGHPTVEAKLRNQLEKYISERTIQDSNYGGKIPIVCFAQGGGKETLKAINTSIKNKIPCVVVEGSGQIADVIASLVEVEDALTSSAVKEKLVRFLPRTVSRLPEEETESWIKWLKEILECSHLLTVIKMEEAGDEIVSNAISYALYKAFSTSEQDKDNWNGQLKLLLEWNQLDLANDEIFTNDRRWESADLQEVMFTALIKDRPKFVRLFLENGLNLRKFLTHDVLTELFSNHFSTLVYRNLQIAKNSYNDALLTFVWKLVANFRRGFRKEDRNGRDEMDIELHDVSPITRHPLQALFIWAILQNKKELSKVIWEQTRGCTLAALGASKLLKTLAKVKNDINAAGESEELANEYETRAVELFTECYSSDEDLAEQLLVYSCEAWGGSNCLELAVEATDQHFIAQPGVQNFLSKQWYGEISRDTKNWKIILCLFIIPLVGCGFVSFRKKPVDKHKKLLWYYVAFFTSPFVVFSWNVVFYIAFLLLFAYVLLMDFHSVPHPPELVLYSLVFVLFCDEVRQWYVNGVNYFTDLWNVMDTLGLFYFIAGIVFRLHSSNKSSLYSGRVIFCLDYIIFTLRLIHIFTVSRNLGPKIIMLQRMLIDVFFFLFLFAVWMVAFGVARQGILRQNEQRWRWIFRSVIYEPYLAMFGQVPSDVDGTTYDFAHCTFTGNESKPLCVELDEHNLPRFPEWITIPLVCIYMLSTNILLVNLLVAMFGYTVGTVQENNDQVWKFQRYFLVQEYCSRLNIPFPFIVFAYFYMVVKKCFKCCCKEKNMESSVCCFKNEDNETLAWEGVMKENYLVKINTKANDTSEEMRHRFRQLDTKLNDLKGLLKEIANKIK

Row | SMILES | activation at 10 µM [%]
2 | CC(C)[C@@H]1CC[C@@H](C)C[C@H]1n1cc(C(=O)c2ccc(Cl)cc2)nn1 [TZM-20, (4-chlorophenyl) (1-((1R,2S,5R)-2-isopropyl-5-methylcyclohexyl)-1H-1,2,3-triazole-4-yl)methanone] | 66.9 ± 17.5
3 | COc1ccc(C(O)c2cn([C@@H]3C[C@H](C)CC[C@H]3C(C)C)nn2)cc1OC (stereo partly drawn) [TZM-26, (3,4-dimethoxyphenyl) (1-((1R,2S,5R)-2-isopropyl-5-methylcyclohexyl)-1H-1,2,3-triazole-4-yl)methanol] | 50.9 ± 17.2
4 | CC1CC[C@@H](C(C)C)[C@H](n2cc(CCCCCCCCC(=O)O)nn2)C1 (stereo in doubt) [TZM-21, 9-(1-((1R,2S,5S)-2-isopropyl-5-methylcyclohexyl)-1H-1,2,3-triazole-4-yl)-nonanoic acid] | 54 ± 14.4
5 | COc1ccccc1C(=O)c1cn([C@@H]2C[C@H](C)CC[C@H]2C(C)C)nn1 [TZM-15, (1-((1R,2S,5R)-2-isopropyl-5-methylcyclohexyl)-1H-1,2,3-triazole-4-yl) (2-methoxyphenyl)methanone] | 50.5 ± 4.83
6 | CC(C)[C@@H]1CC[C@@H](C)C[C@H]1n1cc(C(=O)c2ccc(Oc3ccccc3)cc2)nn1 [TZM-13, (1-((1R,2S,5R)-2-isopropyl-5-methylcyclohexyl)-1H-1,2,3-triazole-4-yl) (4-phenoxyphenyl)methanone] | 46.5 ± 6.57
7 | COc1cc(OC)cc(C(=O)c2cn([C@@H]3C[C@H](C)CC[C@H]3C(C)C)nn2)c1 [TZM-16, (3,5-dimethoxyphenyl) (1-((1R,2S,5R)-2-isopropyl-5-methylcyclohexyl)-1H-1,2,3-triazole-4-yl)methanone] | 44.5 ± 5.59
8 | COc1ccc(C(=O)c2cn([C@@H]3C[C@H](C)CC[C@H]3C(C)C)nn2)c(OC)c1 [TZM-14, (2,4-dimethoxyphenyl) (1-((1R,2S,5R)-2-isopropyl-5-methylcyclohexyl)-1H-1,2,3-triazole-4-yl)methanone] | 43.8 ± 4.22
9 | CC1CCC(C(C)C)C(O)C1 (stereo not shown) [Menthol, reference compound] | 101 ± 1.66
10 | COc1cccc(C(=O)c2cn([C@@H]3C[C@H](C)CC[C@H]3C(C)C)nn2)c1 [TZM-19, (1-((1R,2S,5R)-2-isopropyl-5-methylcyclohexyl)-1H-1,2,3-triazole-4-yl) (3-methoxyphenyl)methanone] | 40.8 ± 9.01
11 | CC(C)[C@@H]1CC[C@@H](C)C[C@H]1n1cc(C2(O)CCCCC2)nn1 [TZM-6, 1-(1-((1R,2S,5R)-2-isopropyl-5-methylcyclohexyl)-1H-1,2,3-triazole-4-yl)cyclohexan-1-ol] | 45.1 ± 16.9
12 | CC(C)[C@@H]1CC[C@@H](C)C[C@H]1n1cc(C(=O)c2cccc(F)c2)nn1 [TZM-12, (3-fluorophenyl) (1-((1R,2S,5R)-2-isopropyl-5-methylcyclohexyl)-1H-1,2,3-triazole-4-yl)methanone] | 57.9 ± 8.57
13 | COc1ccc(C(=O)c2cn([C@@H]3C[C@H](C)CC[C@H]3C(C)C)nn2)cc1OC [TZM-11, (3,4-dimethoxyphenyl) (1-((1R,2S,5R)-2-isopropyl-5-methylcyclohexyl)-1H-1,2,3-triazole-4-yl)methanone] | 53.5 ± 13.4
14 | COc1ccc(C(=O)c2cn([C@@H]3C[C@H](C)CC[C@H]3C(C)C)nn2)cc1 [TZM-18, (1-((1R,2S,5R)-2-isopropyl-5-methylcyclohexyl)-1H-1,2,3-triazole-4-yl) (4-methoxyphenyl)methanone] | 44.6 ± 5.62

Further lines, results first:

Row | activation at 10 µM [%] | SMILES
15 | 50.1 ± 8.25 | CC(C)[C@@H]1CC[C@@H](C)C[C@H]1n1cc(-c2ccc(-c3ccccc3)cc2)nn1 [TZM-5, 4-([1,1′-biphenyl]-4-yl)-1-((1R,2S,5R)-2-isopropyl-5-methylcyclohexyl)-1H-1,2,3-triazole]
16 | 85.1 ± 33 | COc1ccc(-c2cn([C@@H]3C[C@H](C)CC[C@H]3C(C)C)nn2)cc1 [TZM-4, 1-((1R,2S,5R)-2-isopropyl-5-methylcyclohexyl)-4-(4-methoxyphenyl)-1H-1,2,3-triazole]
17 | 45 ± 23.4 | CC(C)[C@@H]1CC[C@@H](C)C[C@H]1n1cc(CCc2ccccc2)nn1 [TZM-10, 1-((1R,2S,5R)-2-isopropyl-5-methylcyclohexyl)-4-phenethyl-1H-1,2,3-triazole]
18 | 45.1 ± 18.6 | COCc1cn([C@@H]2C[C@H](C)CC[C@H]2C(C)C)nn1 [TZM-25, 1-((1R,2S,5R)-2-isopropyl-5-methylcyclohexyl)-4-(methoxymethyl)-1H-1,2,3-triazole]
19 | 42 ± 4.53 | CC(C)[C@@H]1CC[C@@H](C)C[C@H]1n1cc(C(=O)c2ccc(-c3ccccc3)cc2)nn1 [TZM-17, [1,1′-biphenyl]-4-yl(1-((1R,2S,5R)-2-isopropyl-5-methylcyclohexyl)-1H-1,2,3-triazole-4-yl)methanone]
20 | 51.2 ± 16.1 | CC(C)[C@@H]1CC[C@@H](C)C[C@H]1n1cc(-c2cccc(O)c2)nn1 [TZM-23, 3-[1-((1R,2S,5R)-2-isopropyl-5-methylcyclohexyl)-1H-1,2,3-triazole-4-yl]phenol]
21 | 55.6 ± 26.2 | CC(C)[C@@H]1CC[C@@H](C)C[C@H]1n1cc(-c2ccc(Oc3ccccc3)cc2)nn1 [TZM-2, 1-((1R,2S,5R)-2-isopropyl-5-methylcyclohexyl)-4-(4-phenoxyphenyl)-1H-1,2,3-triazole]
22 | 56.5 ± 29.7 | CC(C)[C@@H]1CC[C@@H](C)C[C@H]1n1cc(-c2cccc3ccccc23)nn1 [TZM-8, 1-((1R,2S,5R)-2-isopropyl-5-methylcyclohexyl)-4-(naphthalene-1-yl)-1H-1,2,3-triazole]
23 | 45.5 ± 11.2 | CC(C)[C@@H]1CC[C@@H](C)C[C@H]1n1cc(CO)nn1 [TZM-1]
24 | 59.1 ± 30.4 | CC(C)[C@@H]1CC[C@@H](C)C[C@H]1n1cc(-c2ccccn2)nn1 [TZM-9, 2-(1-((1R,2S,5R)-2-isopropyl-5-methylcyclohexyl)-1H-1,2,3-triazole-4-yl)pyridine]
25 | 51.6 ± 14 | CC(C)[C@@H]1CC[C@@H](C)C[C@H]1n1cc(-c2ccccc2)nn1 [TZM-3, 1-((1R,2S,5R)-2-isopropyl-5-methylcyclohexyl)-4-phenyl-1H-1,2,3-triazole]
26 | 57.3 ± 15.2 | CC1CC[C@@H](C(C)C)[C@H](n2cc(CCCCC#N)nn2)C1 (stereo in doubt) [TZM-22, 5-(1-((1R,2S,5S)-2-isopropyl-5-methylcyclohexyl)-1H-1,2,3-triazole-4-yl)pentanenitrile]
27 | 37.8 ± 5.49 | COc1cccc(-c2cn([C@@H]3C[C@H](C)CC[C@H]3C(C)C)nn2)c1 [TZM-24, 1-((1R,2S,5R)-2-isopropyl-5-methylcyclohexyl)-4-(3-methoxyphenyl)-1H-1,2,3-triazole]

same assay, conditions: CHO cells stably expressing TRPM8; concentrations 0.1, 1, 10 and 100 μM; sigmoid fit

Row | EC50 [µM] | SMILES
28 | 3.47 ± 1.34 | COc1ccc(-c2cn([C@@H]3C[C@H](C)CC[C@H]3C(C)C)nn2)cc1 [TZM-4, 1-((1R,2S,5R)-2-isopropyl-5-methylcyclohexyl)-4-(4-methoxyphenyl)-1H-1,2,3-triazole]
29 | 3.84 ± 2.36 | CC(C)[C@@H]1CC[C@@H](C)C[C@H]1n1cc(CCc2ccccc2)nn1 [TZM-10, 1-((1R,2S,5R)-2-isopropyl-5-methylcyclohexyl)-4-phenethyl-1H-1,2,3-triazole]
30 | 6.23 ± 3.18 | CC(C)[C@@H]1CC[C@@H](C)C[C@H]1n1cc(-c2ccccn2)nn1 [TZM-9, 2-(1-((1R,2S,5R)-2-isopropyl-5-methylcyclohexyl)-1H-1,2,3-triazole-4-yl)pyridine]

Row | SMILES | EC50 [µM]
31 | COc1ccc(C(=O)c2cn([C@@H]3C[C@H](C)CC[C@H]3C(C)C)nn2)cc1OC [TZM-11, (3,4-dimethoxyphenyl) (1-((1R,2S,5R)-2-isopropyl-5-methylcyclohexyl)-1H-1,2,3-triazole-4-yl)methanone] | 9.84 ± 3.29

Source: US10905679B2, “TRPM8 receptor agonist compounds and uses thereof” (UNIVERSIDAD MIGUEL HERNANDEZ DE ELCHE, priority 2016, dated 2021)
